Assay results from PubChem BioAssay (NCI).
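Test compounds were applied to cells in 96-well plates for 48 hours at 5 doses. TGI is the concentration that stops growth completely.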

Columns and labels:
Assay in all cases: DTP human tumour cell line panel, 48 h
[1] = test system: SK-OV-3 ovarian
[2] = test system: SNB-19 CNS
[3] = test system: OVCAR-8 ovarian
[4] = test system: NCI/ADR-RES ovarian
[5] = test system: UACC-62 melanoma
[6] = test system: HOP-92 NSCLC
[7] = test system: OVCAR-3 ovarian
[8] = test system: MDA-N
[9] = test system: A498 renal
[10] = test system: KM12 colon
[11] = test system: PC-3 prostate
[12] = test system: EKVX NSCLC
[13] = test system: M14 melanoma
[14] = test system: MDA-MB-231 breast
[15] = test system: HCC-2998 colon
[16] = test system: MDA-MB-435
[17] = test system: NCI-H226 lung
[18] = test system: MALME-3M melanoma
[19] = test system: SF-295 CNS
[20] = test system: BT-549 breast
[21] = test system: T-47D breast
[22] = test system: IGROV1 ovarian
[23] = test system: 786-0 renal
[24] = test system: A549 NSCLC
[25] = test system: ACHN renal
[26] = test system: SN12C renal
[27] = test system: SW-620 colon
[28] = test system: CCRF-CEM leukemia
[29] = test system: MOLT-4 leukemia
[30] = test system: HCT-116 colon
[31] = test system: RXF 393 renal
[32] = test system: HCT-15 colon
[33] = test system: SK-MEL-28 melanoma
[34] = test system: K-562 leukemia
[35] = test system: SF-268 CNS
[36] = test system: NCI-H23 lung
[37] = test system: HL-60(TB) leukemia
[38] = test system: HT29 colon
[39] = test system: SF-539 CNS
[40] = test system: U251 CNS
[41] = test system: HOP-62 NSCLC
[42] = test system: TK-10 renal
[43] = test system: DU-145 prostate
[44] = test system: SR leukemia
[45] = test system: OVCAR-5 ovarian
[46] = test system: NCI-H460 lung
[47] = test system: MCF7 breast
[48] = test system: HS 578T breast
[49] = test system: SK-MEL-5 melanoma
[50] = test system: UACC-257 melanoma
[51] = test system: UO-31 renal
[52] = test system: CAKI-1 renal
[53] = test system: LOX IMVI melanoma
[54] = test system: COLO 205 colon
[55] = test system: NCI-H522 lung
[56] = test system: SK-MEL-2 melanoma
[57] = test system: RPMI-8226 leukemia
[58] = test system: OVCAR-4 ovarian
[59] = test system: SNB-75 CNS

CCN(CC)c1nc(NC2CCCCC2)c2nc(N(CC)CC)nc(NC3CCCCC3)c2n1
TGI [1]: > 100 µM
TGI [2]: > 100 µM
TGI [3]: > 100 µM
TGI [4]: > 100 µM
TGI [5]: > 100 µM
TGI [6]: > 100 µM
TGI [7]: > 100 µM
TGI [8]: > 100 µM
TGI [9]: > 100 µM
TGI [10]: > 100 µM
TGI [11]: > 100 µM
TGI [12]: > 100 µM
TGI [13]: > 100 µM
TGI [14]: > 100 µM
TGI [15]: > 100 µM
TGI [16]: > 100 µM
TGI [17]: > 100 µM
TGI [18]: > 100 µM
TGI [19]: > 100 µM
TGI [20]: > 100 µM
TGI [21]: > 100 µM
TGI [22]: > 100 µM
TGI [23]: > 100 µM
TGI [24]: > 100 µM
TGI [25]: > 100 µM
TGI [26]: > 100 µM
TGI [27]: > 100 µM
TGI [28]: > 100 µM
TGI [29]: > 100 µM
TGI [30]: > 100 µM
TGI [31]: 99.8 µM
TGI [32]: > 100 µM
TGI [33]: > 100 µM
TGI [34]: > 100 µM
TGI [35]: > 100 µM
TGI [36]: > 100 µM
TGI [37]: > 100 µM
TGI [38]: > 100 µM
TGI [39]: > 100 µM
TGI [40]: > 100 µM
TGI [41]: > 100 µM
TGI [42]: > 100 µM
TGI [43]: > 100 µM
TGI [44]: > 100 µM
TGI [45]: > 100 µM
TGI [46]: > 100 µM
TGI [47]: > 100 µM
TGI [48]: > 100 µM
TGI [49]: > 100 µM

O=C(Nc1ccc2cc3ccccc3cc2c1)c1cc2c(cc1Cl)Sc1nccn1S2(=O)=O
TGI [50]: > 100 µM
TGI [1]: > 100 µM
TGI [2]: > 100 µM
TGI [3]: > 100 µM
TGI [51]: > 100 µM
TGI [4]: > 100 µM
TGI [5]: > 100 µM
TGI [6]: > 100 µM
TGI [7]: > 100 µM
TGI [8]: > 100 µM
TGI [52]: > 100 µM
TGI [53]: > 100 µM
TGI [10]: > 100 µM
TGI [11]: 52.6 µM
TGI [54]: > 100 µM
TGI [12]: > 100 µM
TGI [13]: > 100 µM
TGI [14]: 60.1 µM
TGI [15]: 95.8 µM
TGI [55]: > 100 µM
TGI [56]: > 100 µM
TGI [16]: > 100 µM
TGI [17]: > 100 µM
TGI [18]: > 100 µM
TGI [19]: > 100 µM
TGI [20]: > 100 µM
TGI [21]: > 100 µM
TGI [22]: > 100 µM
TGI [23]: 30 µM
TGI [24]: > 100 µM
TGI [25]: > 100 µM
TGI [26]: > 100 µM
TGI [27]: > 100 µM
TGI [29]: > 100 µM
TGI [30]: > 100 µM
TGI [31]: > 100 µM
TGI [32]: > 100 µM
TGI [33]: > 100 µM
TGI [57]: > 100 µM
TGI [34]: > 100 µM
TGI [35]: 97.6 µM
TGI [36]: > 100 µM
TGI [37]: 46.9 µM
TGI [58]: > 100 µM
TGI [38]: > 100 µM
TGI [39]: 33.8 µM
TGI [40]: > 100 µM
TGI [41]: > 100 µM
TGI [42]: 70.7 µM
TGI [59]: 81.2 µM
TGI [43]: > 100 µM
TGI [44]: > 100 µM
TGI [45]: 93.5 µM
TGI [46]: > 100 µM
TGI [47]: > 100 µM
TGI [48]: > 100 µM
TGI [49]: > 100 µM

CN(C)N=Nc1ccc2[nH]c(=O)[nH]c2c1
TGI [50]: > 100 µM
TGI [1]: > 100 µM
TGI [2]: > 100 µM
TGI [3]: > 100 µM
TGI [51]: > 100 µM
TGI [4]: > 100 µM
TGI [5]: > 100 µM
TGI [7]: > 100 µM
TGI [8]: > 100 µM
TGI [52]: > 100 µM
TGI [53]: > 100 µM
TGI [9]: > 100 µM
TGI [10]: > 100 µM
TGI [11]: > 100 µM
TGI [54]: > 100 µM
TGI [12]: > 100 µM
TGI [13]: > 100 µM
TGI [14]: > 100 µM
TGI [15]: > 100 µM
TGI [55]: > 100 µM
TGI [56]: > 100 µM
TGI [16]: > 100 µM
TGI [17]: > 100 µM
TGI [18]: > 100 µM
TGI [19]: > 100 µM
TGI [20]: > 100 µM
TGI [21]: > 100 µM
TGI [22]: > 100 µM
TGI [23]: > 100 µM
TGI [24]: > 100 µM
TGI [25]: > 100 µM
TGI [26]: > 100 µM
TGI [27]: > 100 µM
TGI [28]: > 100 µM
TGI [30]: > 100 µM
TGI [31]: > 100 µM
TGI [32]: > 100 µM
TGI [33]: > 100 µM
TGI [57]: > 100 µM
TGI [34]: > 100 µM
TGI [35]: > 100 µM
TGI [36]: > 100 µM
TGI [37]: 83.7 µM
TGI [58]: > 100 µM
TGI [38]: > 100 µM
TGI [39]: > 100 µM
TGI [40]: > 100 µM
TGI [41]: > 100 µM
TGI [42]: > 100 µM
TGI [59]: > 100 µM
TGI [43]: > 100 µM
TGI [45]: > 100 µM
TGI [46]: > 100 µM
TGI [47]: > 100 µM
TGI [48]: > 100 µM
TGI [49]: > 100 µM

CC1(C)OC2OC(COC(=O)c3ccc(C#N)cc3)C3OC(C)(C)OC3C2O1 (stereo unspecified)
TGI [50]: > 75 µM
TGI [1]: > 75 µM
TGI [2]: > 75 µM
TGI [3]: > 75 µM
TGI [51]: > 75 µM
TGI [4]: > 75 µM
TGI [5]: > 75 µM
TGI [7]: > 75 µM
TGI [8]: > 75 µM
TGI [52]: > 75 µM
TGI [53]: > 75 µM
TGI [9]: > 75 µM
TGI [10]: > 75 µM
TGI [11]: > 75 µM
TGI [54]: > 75 µM
TGI [12]: > 75 µM
TGI [13]: > 75 µM
TGI [14]: > 75 µM
TGI [15]: > 75 µM
TGI [55]: > 75 µM
TGI [56]: > 75 µM
TGI [16]: > 75 µM
TGI [17]: > 75 µM
TGI [18]: > 75 µM
TGI [19]: > 75 µM
TGI [20]: > 75 µM
TGI [22]: > 75 µM
TGI [23]: > 75 µM
TGI [24]: > 75 µM
TGI [25]: > 75 µM
TGI [26]: > 75 µM
TGI [27]: > 75 µM
TGI [28]: > 75 µM
TGI [29]: > 75 µM
TGI [30]: > 75 µM
TGI [31]: > 75 µM
TGI [32]: > 75 µM
TGI [33]: > 75 µM
TGI [57]: > 75 µM
TGI [34]: > 75 µM
TGI [35]: > 75 µM
TGI [36]: > 75 µM
TGI [58]: > 75 µM
TGI [38]: > 75 µM
TGI [39]: > 75 µM
TGI [40]: > 75 µM
TGI [41]: > 75 µM
TGI [42]: > 75 µM
TGI [59]: > 75 µM
TGI [43]: > 75 µM
TGI [44]: > 75 µM
TGI [45]: > 75 µM
TGI [47]: > 75 µM
TGI [49]: > 75 µM
